From patent publication US20090311217A1, “3-SUBSTITUTED-1H-INDOLE COMPOUNDS, THEIR USE AS MTOR KINASE AND PI3 KINASE INHIBITORS, AND THEIR SYNTHESES” (priority 2008, published 2009)

Columns and labels:
PI3K-alpha = PI3K-alpha (Homo sapiens, UniProt P42336); assay: PI3K-alpha fluorescence polarization assay; assay type: biochemical; details: read-out: PI3Kα Avg. IC50
PI3K-gamma = PI3K-gamma (Homo sapiens, UniProt P48736); assay: PI3K-gamma fluorescence polarization assay; assay type: biochemical; details: PI3Kγ Avg. IC50
Outline: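 Each isoform (5 ng) phosphorylated 2.5 μM diC8-PI(4,5)P2 at 25 μM ATP for one hour at 25° C in the presence of inhibitor. Reactions were then stopped with EDTA, and product was detected by fluorescence polarization using a GST-GRP1 PH domain and a BODIPY-TMR-labelled IP4 tracer.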

Chain of PI3K-gamma (P48736 whole entry, species assumed, the tested form may be a part, canonical isoform): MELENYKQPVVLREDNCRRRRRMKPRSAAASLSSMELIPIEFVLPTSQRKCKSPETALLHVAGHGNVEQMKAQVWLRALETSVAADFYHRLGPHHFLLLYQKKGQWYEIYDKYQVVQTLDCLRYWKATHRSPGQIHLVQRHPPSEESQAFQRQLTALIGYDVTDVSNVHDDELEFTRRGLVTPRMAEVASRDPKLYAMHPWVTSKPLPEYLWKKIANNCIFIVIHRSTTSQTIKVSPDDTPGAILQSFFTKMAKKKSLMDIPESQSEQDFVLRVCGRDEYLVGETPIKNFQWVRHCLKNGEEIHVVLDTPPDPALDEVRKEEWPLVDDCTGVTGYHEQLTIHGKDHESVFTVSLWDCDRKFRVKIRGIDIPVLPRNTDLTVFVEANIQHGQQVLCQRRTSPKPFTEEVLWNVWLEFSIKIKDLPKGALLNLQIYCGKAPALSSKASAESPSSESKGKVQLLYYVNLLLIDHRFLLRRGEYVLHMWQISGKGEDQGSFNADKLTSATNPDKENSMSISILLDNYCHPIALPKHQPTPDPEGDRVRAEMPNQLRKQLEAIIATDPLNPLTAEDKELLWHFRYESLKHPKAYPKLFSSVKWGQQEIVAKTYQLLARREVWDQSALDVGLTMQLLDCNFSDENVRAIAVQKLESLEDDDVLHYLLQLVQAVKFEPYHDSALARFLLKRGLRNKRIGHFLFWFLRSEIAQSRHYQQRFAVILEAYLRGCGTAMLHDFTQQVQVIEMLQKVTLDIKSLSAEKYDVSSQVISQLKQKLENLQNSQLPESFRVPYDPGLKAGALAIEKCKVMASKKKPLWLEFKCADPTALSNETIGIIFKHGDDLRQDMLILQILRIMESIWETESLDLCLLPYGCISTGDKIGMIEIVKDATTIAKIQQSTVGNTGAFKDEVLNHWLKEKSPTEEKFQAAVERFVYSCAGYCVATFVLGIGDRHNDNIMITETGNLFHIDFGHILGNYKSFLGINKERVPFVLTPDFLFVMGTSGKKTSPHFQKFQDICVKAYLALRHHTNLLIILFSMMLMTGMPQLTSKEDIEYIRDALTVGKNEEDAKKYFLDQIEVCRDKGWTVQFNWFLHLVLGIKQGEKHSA
Chain of PI3K-alpha (P42336 whole entry, species assumed): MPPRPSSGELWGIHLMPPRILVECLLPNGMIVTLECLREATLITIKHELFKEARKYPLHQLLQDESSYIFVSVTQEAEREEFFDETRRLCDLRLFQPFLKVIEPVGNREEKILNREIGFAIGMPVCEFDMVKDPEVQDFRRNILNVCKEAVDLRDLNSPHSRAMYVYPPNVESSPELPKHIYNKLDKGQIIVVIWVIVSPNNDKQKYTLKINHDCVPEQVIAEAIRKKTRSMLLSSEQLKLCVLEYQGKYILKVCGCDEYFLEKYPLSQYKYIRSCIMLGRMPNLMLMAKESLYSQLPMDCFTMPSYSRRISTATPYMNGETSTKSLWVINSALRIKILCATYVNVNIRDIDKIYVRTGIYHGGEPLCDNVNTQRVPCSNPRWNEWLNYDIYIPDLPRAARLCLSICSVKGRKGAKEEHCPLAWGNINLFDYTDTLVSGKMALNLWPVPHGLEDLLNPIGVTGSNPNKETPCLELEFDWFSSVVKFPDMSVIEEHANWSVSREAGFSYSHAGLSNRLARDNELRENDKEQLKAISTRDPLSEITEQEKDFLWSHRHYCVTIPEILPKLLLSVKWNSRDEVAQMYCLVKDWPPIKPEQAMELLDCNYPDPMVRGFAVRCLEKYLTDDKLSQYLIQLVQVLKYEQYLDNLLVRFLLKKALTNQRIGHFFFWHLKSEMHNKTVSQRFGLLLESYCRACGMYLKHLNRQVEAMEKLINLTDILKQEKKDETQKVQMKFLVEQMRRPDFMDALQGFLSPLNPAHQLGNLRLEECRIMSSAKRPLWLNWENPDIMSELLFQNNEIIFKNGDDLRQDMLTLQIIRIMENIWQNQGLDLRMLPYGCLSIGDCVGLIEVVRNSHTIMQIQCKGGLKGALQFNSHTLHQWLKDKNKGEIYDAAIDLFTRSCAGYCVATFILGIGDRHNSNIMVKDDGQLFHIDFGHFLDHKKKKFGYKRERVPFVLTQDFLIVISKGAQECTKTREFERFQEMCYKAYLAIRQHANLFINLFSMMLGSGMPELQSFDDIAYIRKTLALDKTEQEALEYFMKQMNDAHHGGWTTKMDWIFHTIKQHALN
Chain of PI3K-alpha (P27986 whole entry partner, species assumed): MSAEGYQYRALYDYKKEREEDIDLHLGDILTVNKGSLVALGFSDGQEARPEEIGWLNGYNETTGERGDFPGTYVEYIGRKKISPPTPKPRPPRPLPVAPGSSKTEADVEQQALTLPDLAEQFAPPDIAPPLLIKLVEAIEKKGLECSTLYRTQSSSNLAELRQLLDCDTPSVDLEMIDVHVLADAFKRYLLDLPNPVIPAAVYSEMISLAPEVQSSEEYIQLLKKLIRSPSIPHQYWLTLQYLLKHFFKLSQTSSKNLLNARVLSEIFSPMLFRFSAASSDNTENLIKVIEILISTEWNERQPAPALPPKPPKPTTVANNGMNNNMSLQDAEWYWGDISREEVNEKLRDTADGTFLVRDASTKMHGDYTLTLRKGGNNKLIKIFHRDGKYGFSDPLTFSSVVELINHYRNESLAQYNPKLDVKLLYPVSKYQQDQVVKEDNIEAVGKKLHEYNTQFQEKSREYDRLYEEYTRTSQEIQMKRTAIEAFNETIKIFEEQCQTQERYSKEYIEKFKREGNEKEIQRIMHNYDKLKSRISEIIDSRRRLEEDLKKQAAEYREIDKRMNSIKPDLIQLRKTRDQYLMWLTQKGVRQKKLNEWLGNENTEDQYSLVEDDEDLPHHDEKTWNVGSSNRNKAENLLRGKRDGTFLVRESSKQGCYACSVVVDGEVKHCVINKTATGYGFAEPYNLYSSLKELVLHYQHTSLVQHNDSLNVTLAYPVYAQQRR

| Compound | IC50 (PI3K-alpha) | IC50 (PI3K-gamma) |
| --- | --- | --- |
| CNC(=O)Nc1ccc2c(c1)C(=O)/C(=C/c1cn(C)c3c(CCCN4CCN(C)CC4)cc(OC)cc13)O2 [Compound 572, 1-[(2Z)-2-({5-methoxy-1-methyl-7-[3-(4-methylpiperazin-1-yl)propyl]-1H-indol-3-yl}methylene)-3-oxo-2,3-dihydro-1-benzofuran-5-yl]-3-methylurea] | 1660 nM | 2320 nM |
| CNC(=O)Nc1ccc2c(c1)C(=O)/C(=C/c1c[nH]c3c(/C=C/CN(C)C)cc(OC)cc13)O2 [Compound 573, 1-[(2Z)-2-({7-[(1E)-3-(dimethylamino)prop-1-en-1-yl]-5-methoxy-1H-indol-3-yl}methylene)-3-oxo-2,3-dihydro-1-benzofuran-5-yl]-3-methylurea] | 52 nM | 1590 nM |
| COc1ccc2c(c1)c(/C=C1\Oc3ccc(NC(=O)NCCN(C)C)cc3C1=O)cn2CCN1CCN(C)CC1 [Compound 574, 1-[2-(dimethylamino)ethyl]-3-[(2Z)-2-({5-methoxy-1-[2-(4-methylpiperazin-1-yl)ethyl]-1H-indol-3-yl}methylene)-3-oxo-2,3-dihydro-1-benzofuran-5-yl]urea] | 97.5 nM | 2990 nM |
| CNC(=O)Nc1ccc2c(c1)C(=O)/C(=C/c1c(-c3ccccc3)n(CCN3CCN(C)CC3)c3ccc(OC)cc13)O2 [Compound 575, 1-[(2Z)-2-({5-methoxy-1-[2-(4-methylpiperazin-1-yl)ethyl]-2-phenyl-1H-indol-3-yl}methylene)-3-oxo-2,3-dihydro-1-benzofuran-5-yl]-3-methylurea] | 1.25 nM | 206 nM |
| COc1ccc2c(c1)c(/C=C1\Oc3ccc(NC(=O)NCCN)cc3C1=O)c(-c1ccccc1)n2CCN1CCN(C)CC1 [Compound 576, 1-(2-aminoethyl)-3-[(2Z)-2-({5-methoxy-1-[2-(4-methylpiperazin-1-yl)ethyl]-2-phenyl-1H-indol-3-yl}methylene)-3-oxo-2,3-dihydro-1-benzofuran-5-yl]urea] | 0.6 nM | 27.5 nM |
| COc1ccc2c(c1)c(/C=C1\Oc3ccc(NC(=O)NCCN)cc3C1=O)c(C1CCCC1)n2CCN1CCN(C)CC1 [Compound 577, 1-(2-aminoethyl)-3-[(2Z)-2-({2-cyclopentyl-5-methoxy-1-[2-(4-methylpiperazin-1-yl)ethyl]-1H-indol-3-yl}methylene)-3-oxo-2,3-dihydro-1-benzofuran-5-yl]urea] | 1.1 nM | 146 nM |
| CNC(=O)Nc1ccc2c(c1)C(=O)/C(=C/c1cn(CCCN3CCCCC3)c3ccc(OC)cc13)O2 [Compound 578, 1-[(2Z)-2-{[5-methoxy-1-(3-piperidin-1-ylpropyl)-1H-indol-3-yl]methylene}-3-oxo-2,3-dihydro-1-benzofuran-5-yl]-3-methylurea] | 38 nM | 2180 nM |
| CNC(=O)Nc1ccc2c(c1)C(=O)/C(=C/c1cn(CCCC#N)c3ccc(OC)cc13)O2 [Compound 579, 1-[(2Z)-2-{[1-(3-cyanopropyl)-5-methoxy-1H-indol-3-yl]methylene}-3-oxo-2,3-dihydro-1-benzofuran-5-yl]-3-methylurea] | 30 nM | 128 nM |
| CNC(=O)Nc1ccc2c(c1)C(=O)/C(=C/c1cn(CCCN3CCOCC3)c3ccc(OC)cc13)O2 [Compound 580, 1-[(2Z)-2-{[5-methoxy-1-(3-morpholin-4-ylpropyl)-1H-indol-3-yl]methylene}-3-oxo-2,3-dihydro-1-benzofuran-5-yl]-3-methylurea] | 53 nM | 1360 nM |
| CNC(=O)Nc1ccc2c(c1)C(=O)/C(=C/c1c(-c3c(C)noc3C)[nH]c3ccc(OC)cc13)O2 [Compound 581, 1-[(2Z)-2-{[2-(3,5-dimethylisoxazol-4-yl)-5-methoxy-1H-indol-3-yl]methylene}-3-oxo-2,3-dihydro-1-benzofuran-5-yl]-3-methylurea] | 2 nM | 26.5 nM |
| COc1cc(/C=C/CN2CCN(C)CC2)c2c(c1)c(/C=C1\Oc3cc(O)ccc3C1=O)cn2C [Compound 582, (2Z)-6-hydroxy-2-({5-methoxy-1-methyl-7-[(1E)-3-(4-methylpiperazin-1-yl)prop-1-en-1-yl]-1H-indol-3-yl}methylene)-1-benzofuran-3(2H)-one] | 183 nM | 3570 nM |
| CNC(=O)Nc1ccc2c(c1)C(=O)/C(=C/c1c[nH]c3c(CCCN4CCN(C)CC4)cc(OC)cc13)O2 [Compound 583, 1-[(2Z)-2-({5-methoxy-7-[3-(4-methylpiperazin-1-yl)propyl]-1H-indol-3-yl}methylene)-3-oxo-2,3-dihydro-1-benzofuran-5-yl]-3-methylurea] | 222 nM | 6490 nM |
| CNCCNC(=O)Nc1ccc2c(c1)C(=O)/C(=C/c1c(C3CCCCC3)n(CCN3CCN(C)CC3)c3ccc(OC)cc13)O2 [Compound 584, 1-[(2Z)-2-({2-cyclohexyl-5-methoxy-1-[2-(4-methylpiperazin-1-yl)ethyl]-1H-indol-3-yl}methylene)-3-oxo-2,3-dihydro-1-benzofuran-5-yl]-3-[2-(methylamino)ethyl]urea] | 1.1 nM | 26 nM |
| CNC(=O)Nc1ccc2c(c1)C(=O)/C(=C/c1c(C)n(CCCN3CCOCC3)c3ccc(OC)cc13)O2 [Compound 585, 1-[(2Z)-2-{[5-methoxy-2-methyl-1-(3-morpholin-4-ylpropyl)-1H-indol-3-yl]methylene}-3-oxo-2,3-dihydro-1-benzofuran-5-yl]-3-methylurea] | 11 nM | 138 nM |
| CNC(=O)Nc1ccc2c(c1)C(=O)/C(=C/c1c(C)n(CCCN3CCN(C)CC3)c3ccc(OC)cc13)O2 [Compound 586, 1-[(2Z)-2-({5-methoxy-2-methyl-1-[3-(4-methylpiperazin-1-yl)propyl]-1H-indol-3-yl}methylene)-3-oxo-2,3-dihydro-1-benzofuran-5-yl]-3-methylurea] | 3.5 nM | 1010 nM |
| CNC(=O)Nc1ccc2c(c1)C(=O)/C(=C/c1c(C)n(CCCN3CCC(O)CC3)c3ccc(OC)cc13)O2 [Compound 587, 1-[(2Z)-2-({1-[3-(4-hydroxypiperidin-1-yl)propyl]-5-methoxy-2-methyl-1H-indol-3-yl}methylene)-3-oxo-2,3-dihydro-1-benzofuran-5-yl]-3-methylurea] | 4 nM | 982 nM |
| CNC(=O)Nc1ccc2c(c1)C(=O)/C(=C/c1c(C)n(CCCN3CCCCC3)c3ccc(OC)cc13)O2 [Compound 588, 1-[(2Z)-2-{[5-methoxy-2-methyl-1-(3-piperidin-1-ylpropyl)-1H-indol-3-yl]methylene}-3-oxo-2,3-dihydro-1-benzofuran-5-yl]-3-methylurea] | 3.5 nM | 830 nM |

Next, values leading:

| IC50 (PI3K-alpha) | IC50 (PI3K-gamma) | Compound |
| --- | --- | --- |
| 4.5 nM | 967 nM | CNC(=O)Nc1ccc2c(c1)C(=O)/C(=C/c1c(C)n(CCCN3CCC(O)C3)c3ccc(OC)cc13)O2 (centres unmarked) [Compound 589, 1-[(2Z)-2-({1-[3-(3-hydroxypyrrolidin-1-yl)propyl]-5-methoxy-2-methyl-1H-indol-3-yl}methylene)-3-oxo-2,3-dihydro-1-benzofuran-5-yl]-3-methylurea] |
| 3.67 nM | 1020 nM | CNC(=O)Nc1ccc2c(c1)C(=O)/C(=C/c1c(-c3ccncc3)n(CCN3CCN(C)CC3)c3ccc(OC)cc13)O2 [Compound 590, 1-[(2Z)-2-({5-methoxy-1-[2-(4-methylpiperazin-1-yl)ethyl]-2-pyridin-4-yl-1Hindol-3-yl}methylene)-3-oxo-2,3-dihydro-1-benzofuran-5-yl]-3-methylurea] |
| 8 nM | 9500 nM | CNC(=O)Nc1ccc2c(c1)C(=O)/C(=C/c1c(-c3nc(C(C)C)no3)[nH]c3ccc(OC)cc13)O2 [Compound 591, 1-[(2Z)-2-{[2-(3-isopropyl-1,2,4-oxadiazol-5-yl)-5-methoxy-1H-indol-3-yl]methylene}-3-oxo-2,3-dihydro-1-benzofuran-5-yl]-3-methylurea] |
| 5.5 nM | 8900 nM | CNC(=O)Nc1ccc2c(c1)C(=O)/C(=C/c1c(-c3nc(C4CC4)no3)[nH]c3ccc(OC)cc13)O2 [Compound 592, 1-[(2Z)-2-{[2-(3-cyclopropyl-1,2,4-oxadiazol-5-yl)-5-methoxy-1H-indol-3-yl]methylene}-3-oxo-2,3-dihydro-1-benzofuran-5-yl]-3-methylurea] |
| 12.5 nM | 776 nM | CCCc1noc(-c2[nH]c3ccc(OC)cc3c2/C=C2\Oc3ccc(NC(=O)NC)cc3C2=O)n1 [Compound 593, 1-[(2Z)-2-{[5-methoxy-2-(3-propyl-1,2,4-oxadiazol-5-yl)-1H-indol-3-yl]methylene}-3-oxo-2,3-dihydro-1-benzofuran-5-yl]-3-methylurea] |
| 73.5 nM | 2200 nM | CNC(=O)Nc1ccc2c(c1)C(=O)/C(=C/c1c[nH]c3c(/C=C/CN4CCN(C)CC4)cc(OC)cc13)O2 [Compound 594, 1-[(2Z)-2-({5-methoxy-7-[(1E)-3-(4-methylpiperazin-1-yl)prop-1-en-1-yl]-1Hindol-3-yl}methylene)-3-oxo-2,3-dihydro-1-benzofuran-5-yl]-3-methylurea] |
| 222 nM | 1530 nM | CNC(=O)Nc1ccc2c(c1)C(=O)/C(=C/c1c[nH]c3c(C#N)cc(OC)cc13)O2 [Compound 595, 1-{(2Z)-2-[(7-cyano-5-methoxy-1H-indol-3-yl)methylene]-3-oxo-2,3-dihydro-1-benzofuran-5-yl}-3-methylurea] |
| 1.7 nM | 279 nM | CNC(=O)Nc1ccc2c(c1)C(=O)/C(=C/c1c(-c3cccnc3)n(CCN3CCN(C)CC3)c3ccc(OC)cc13)O2 [Compound 596, 1-[(2Z)-2-({5-methoxy-1-[2-(4-methylpiperazin-1-yl)ethyl]-2-pyridin-3-yl-1Hindol-3-yl}methylene)-3-oxo-2,3-dihydro-1-benzofuran-5-yl]-3-methylurea] |
